In US20090312406A1, “COUMARIN COMPOUNDS AND THEIR USE FOR TREATING VIRAL INFECTION” (priority 2008, published 2009):
Where two headings read alike, the source gives them in different places.

System: Influenza A/WSN/33 (H1N1) virus
Assay: In vitro anti-influenza virus assay (neutralization test), cytopathic effect on MDCK cells
Format: cell-based
Details: MDCK cells, 72 h, read-out: IC50 (concentration reducing virus-induced cytopathic effect by 50%)
Description: Anti-influenza activities of the coumarin compounds were evaluated by measuring the ability of a test compound to inhibit the cytopathic effect induced by an influenza virus on MDCK cells. The 96-well tissue culture plates were seeded with 200 μL of MDCK cells at a concentration of 1.1×10^5 cells/mL in DMEM with 10% fetal bovine serum (FBS). The plates were incubated for 24-30 h at 37° C. and were used at about 90% confluency. Influenza A/WSN/33 (H1N1) virus (100 TCID50) was added to the cells and incubated at 35° C. for 1 h. After adsorption, the infected cell plates were overlaid with 50 μL of DMEM plus 2% FBS and a test compound with different concentrations. The plate was incubated at 35° C. for 72 h. At the end of incubation, the plates were fixed by the addition of 100 μL of 4% formaldehyde for 1 h at room temperature. After the removal of formaldehyde, the plates were stained with 0.1% crystal violet for 15 min at room temperature. The plates were washed and dried, and the density of the well was measured at 570 nm. The concentration required for a test compound to reduce the virus-induced cytopathic effect (CPE) by 50% relative to the virus control was expressed as IC50.
Compounds 1 and 95 were also tested on various influenza virus strains. Amantadine or Relenza was also tested for comparison. IC50 is defined as the concentration required for a test compound to reduce the virus-induced cytopathic effect (CPE) by 50% relative to the virus control.

[1] = lower bound (10 nM), upper in μM

SMILES | IC50 [1] [nM] | IC50 (ranges given) [nM]
CCCCOc1cccc(C(=O)c2oc3ccc4c(C)cc(=O)oc4c3c2-c2cccc(Br)c2)c1 [Compound 262] | 10 to 999 | –
Cc1cc(=O)oc2c1ccc1oc(C(=O)c3ccsc3)c(-c3ccccc3)c12 [Compound 96] | 10 to 999 | –
Cc1cc(=O)oc2c1ccc1oc(/C(=N/O)c3ccccc3)c(-c3ccccc3)c12 [Compound 171] | – | 1000 to 5900
Cc1cc(=O)oc2c1ccc1oc(C(O)c3ccccc3)c(-c3cccc(C#N)c3)c12 (stereo not drawn) [Compound 234] | 10 to 999 | –
Cc1cc(=O)oc2c1ccc1oc(C(=O)c3ccccc3Cl)c(-c3ccccc3)c12 [Compound 47] | 10 to 999 | –
Cc1cc(=O)oc2c1ccc1oc(C(=O)c3cccc(OCCN[C@@]45C[C@@H]6C[C@@H](C[C@@](O)(C6)C4)C5)c3)c(-c3ccccc3)c12 [Compound 183] | – | 6000 to 25000
Cc1cc(=O)oc2c1ccc1oc(C(=O)c3cccs3)c(-c3cccc(Br)c3)c12 [Compound 259] | 10 to 999 | –
Cc1cc(=O)oc2c1ccc1oc(C(=O)c3cccc(OCCCCO)c3)c(-c3ccccc3)c12 [Compound 186] | 10 to 999 | –
Cc1cc(=O)oc2c1ccc1oc(C(=O)c3ccc4ccccc4c3)c(-c3ccccc3)c12 [Compound 54] | 10 to 999 | –
CC(=O)OCCCCCCOc1cccc(C(=O)c2oc3ccc4c(C)cc(=O)oc4c3c2-c2ccccc2)c1 [Compound 237] | 10 to 999 | –
C=CCCCCOc1cccc(C(=O)c2oc3ccc4c(C)cc(=O)oc4c3c2-c2ccccc2)c1 [Compound 79] | 10 to 999 | –
O=C(c1ccccc1)c1oc2ccc3c(C(F)(F)F)cc(=O)oc3c2c1-c1ccccc1 [Compound 11] | 10 to 999 | –
Cc1cc(=O)oc2c1ccc1oc(C(=O)c3cccc(OCCCCCO)c3)c(-c3ccccc3)c12 [Compound 187] | – | 1000 to 5900
Cc1cc(=O)oc2c1ccc1oc(C(=O)c3ccccc3)c(-c3cccc4ccccc34)c12 [Compound 206] | 10 to 999 | –
Cc1cc(=O)oc2c1ccc1oc(C(=O)c3cccc(C(F)(F)F)c3)c(-c3ccccc3)c12 [Compound 36] | 10 to 999 | –
C=CC(=O)Oc1cccc(C(=O)c2oc3ccc4c(C)cc(=O)oc4c3c2-c2ccccc2)c1 [Compound 182] | – | 1000 to 5900
Cc1cc(=O)oc2c1ccc1oc(C(=O)c3ccccc3)c(-c3cc(Cl)cc(Cl)c3)c12 [Compound 149] | – | 1000 to 5900
Cc1cc(=O)oc2c1ccc1oc(C(=O)c3ccccc3)c(-c3ccccc3F)c12 [Compound 132] | 10 to 999 | –
Cc1cc(=O)oc2c1ccc1oc(C(=O)c3ccccc3)c(-c3ccc(O)cc3)c12 [Compound 239] | – | 1000 to 5900
CCCCCOc1cccc(C(=O)c2oc3ccc4c(C)cc(=O)oc4c3c2-c2cccc(Br)c2)c1 [Compound 263] | – | 1000 to 5900
O=C(c1ccccc1)c1oc2ccc3ccc(=O)oc3c2c1-c1ccccc1 [Compound 2] | – | 6000 to 25000
Cc1cc(=O)oc2c1ccc1oc(C(=O)c3cc(Cl)sc3Cl)c(-c3ccccc3)c12 [Compound 97] | – | 1000 to 5900
Cc1cc(=O)oc2c1ccc1oc(C(=O)c3cccc(OP(=O)(O)O)c3)c(-c3ccccc3)c12 [Compound 249] | – | 1000 to 5900
Cc1cc(=O)oc2c1ccc1oc(C(=O)c3cccc(OCCN4CCc5ccccc5C4)c3)c(-c3ccccc3)c12 [Compound 240] | – | 1000 to 5900
Cc1cc(=O)oc2c1ccc1oc(C(=O)c3ccccc3)c(-c3cccs3)c12 [Compound 160] | 10 to 999 | –
Cc1cc(=O)oc2c1ccc1oc(C(=O)c3cccc(OCCCl)c3)c(-c3ccccc3)c12 [Compound 73] | – | 1000 to 5900
Cc1cc(=O)oc2c1ccc1oc(C(=O)c3ccccc3)c(-c3cccc(N)c3)c12 [Compound 146] | 10 to 999 | –
Cc1cc(=O)oc2c1ccc1oc(C(=O)c3ccc([N+](=O)[O-])cc3)c(-c3ccc(Br)cc3)c12 [Compound 216] | – | 6000 to 25000
CC(=O)Oc1cccc(C(=O)c2oc3ccc4c(C)cc(=O)oc4c3c2-c2ccccc2)c1 [Compound 180] | 10 to 999 | –
CCCCCC#CC(=O)Oc1cccc(C(=O)c2oc3ccc4c(C)cc(=O)oc4c3c2-c2ccccc2)c1 [Compound 203] | – | 1000 to 5900
